Test results: patent US6828309B2, “Use of pentosan polysulfate to treat certain conditions of the prostate” (The United States of America as represented by the …, priority 2000, dated 2004)

Columns and labels:
[1] = biological target: T1, type II 5-alpha-reductase (Homo sapiens, UniProt P31213); settings: Moore et al. 1995; cited from earlier work
T1 sequence (P31213 1-254): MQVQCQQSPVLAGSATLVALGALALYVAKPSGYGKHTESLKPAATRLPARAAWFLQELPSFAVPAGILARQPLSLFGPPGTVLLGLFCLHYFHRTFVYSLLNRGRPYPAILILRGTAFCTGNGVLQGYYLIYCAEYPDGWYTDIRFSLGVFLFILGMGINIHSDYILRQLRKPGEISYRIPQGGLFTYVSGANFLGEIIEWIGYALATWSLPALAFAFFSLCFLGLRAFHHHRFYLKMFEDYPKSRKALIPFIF

human prostate cells = assay: Dose response / growth curves of prostatic smooth muscle cells in 20% FBS, cell counts by Coulter counter; assay type: cell-based
Procedure: Fragments from the nodular areas of prostatectomy specimens were obtained, cut into small pieces, and incubated in a collagenase solution (3 mg/ml) (Sigma Chemical Co., St. Louis, Mo.) overnight at 37° C. The following day, the digested fragments were resuspended in complete Waymouth's medium (Gibco) containing 20% fetal bovine serum (FBS), L-glutamine, penicillin (100 U/ml), streptomycin (100 μg/ml), and sodium bicarbonate. The digested fragments were then plated into 24-well plates (Nunc Nalge International, Naperville, Ill.) coated with human fibronectin (Collaborative Research). The fragments were left undisturbed in 95% […] and 5% CO2 until the first outgrowth was apparent (by day 7), at which time the cells appeared elongated and stellate and formed parallel arrays. The medium was changed twice a week until the cells reached confluence, at which time the cells were transferred into flasks. All experiments were performed on cells between passage 2 and 10, at which time the cells appeared to have a stable phenotype (i.e., monolayer growth with no morphological change and no hillock formation at confluence). Characterization was performed by staining for a smooth muscle cell actin (Sigma Chemical Co.) and F actin (Molecular Probes) in accordance with manufacturers' directions. All of the cells contained end to end actin filaments when stained with phalloidin. Such staining is characteristic of mesenchymal cells. Since the majority of the cells contained smooth muscle actin (see FIG. 1), the cells were considered to be smooth muscle cells
Dose response curves for the cells were generated by plating cells at 5,000 cells/well in 24-well plates (Nunc) in medium containing 20% FBS. After 36 hours, the medium was replaced with fresh 20% FBS containing medium and increasing concentrations of PPS (Elmiron®, Ivax Corp., Miami Fla.) were added. Cells were counted on days 1, 3 and 4 with a Coulter 7.1 cell counter (Coulter, Hialeah, Fla.). The addition of FBS stimulated cell proliferation. […] Cell number decreased 24 hours following treatment with PPS (10 or 100 μg/ml) (see FIG. 2). […]

MMP-2 = assay: Zymography for metalloproteinases in medium of PPS-treated cells (MMP-2); assay type: cell-based, human; settings: PPS 100 μg/μl daily for 5 days; densitometry
Procedure: (§1) Cells in medium containing 20% FBS were pipetted into 6-well plates and were left undisturbed for 24 hours. On day 0, fresh medium containing 20% serum, with and without PPS ([…]), was added PPS was added daily for 5 days. At day 4, the serum in the medium was reduced to 0.1% FBS so as to avoid interference with the assays. At the time of collection, the cellular supernatants were centrifuged to remove cellular debris. Cell layers from the same wells were used to determine cell number.
(§2) Briefly, medium was diluted with 0.1% FBS and 5× Laemmli buffer so that all samples corresponded to an identical cell number. Gelatinases (MMP-9 and MMP-2) in the medium were assayed using 10% zymogram gels (Novex, San Diego, Calif.). Following electrophoresis, the gels were washed for 1 hour in 2.5% SDS and incubated overnight in collagenase as described previously (Boyle et al., Urology 48: 398-405, 1996). The gels were stained with Coomassie Blue and air-dried. To check for non-specific bands, gels were incubated in 50 mM Tris buffer, with the addition of 25 mM EDTA. Quantitative densitometry was performed using NIH image 1.6. […] However MMP-9 increased 235.7+/−50.31 as compared to control cells (see FIG. 3) (p<001).

MMP-9 = assay: Zymography for metalloproteinases in medium of PPS-treated cells (MMP-9); assay type: cell-based, human; settings: PPS 100 μg/μl daily for 5 days; densitometry
Procedure: as §1, §2

TIMP-1 = assay: Reverse zymography for tissue inhibitors of metalloproteinases (TIMP-1); assay type: cell-based, human; settings: PPS-treated cells; densitometry
Procedure: (§3) Tissue inhibitors of metalloproteinases (TIMPS) in the supernatant and the cell layer were assessed by reverse zymography. Briefly, gels were prepared containing gelatinase A. Medium was diluted to normalize for cell number as described in Example 2. Gels were washed for 1 hour in 2.5% SDS following electrophoresis and incubated overnight at 37° C. Coomasie Blue staining and air drying was performed as described in Example 2. Densitometry was performed using NIH image 1.6 to quantitate the TIMPS activity.

TIMP-2 = assay: Reverse zymography for tissue inhibitors of metalloproteinases (TIMP-2); assay type: cell-based, human; settings: PPS-treated cells; barely detectable in the control medium
Procedure: as §3

type IV collagen = assay: Collagen analysis, type IV collagen immunoassay; assay type: cell-based, human; settings: PPS-treated vs untreated cells
Procedure: (§4) Another set of cells was plated as described in Example 2 and either treated with PPS or left untreated. The supernatant was centrifuged to remove cellular debris and transferred to a tube containing protease inhibitors (PMSF, NEM, EDTA) and frozen prior to assay.
Type IV collagen: The Assay was performed in a similar way, except the medium and standards were coated on the plate for 8 hours prior to blocking. The concentration of the antibody and the biotinylated goat anti-rabbit IgG was 1:2000. The SAAP was used at 1:1500.
(§5) Type I and type IV (Biodesign) collagen standards were diluted to a final concentration of 0.25-4 ng/well in 0.02 N acetic acid. The curves were linear (r=0.98).

type I collagen = assay: Collagen analysis, type I collagen immunoassay; assay type: cell-based, human; settings: PPS-treated vs untreated cells
Procedure: as §4
Type I collagen: 100 μl of medium or human collagen type I standard were incubated for 24 hours in a 96 well plate (Nunc). After 3 washes with 0.05% Tween/PBS, the wells were blocked with 1% BSA/PBS for an additional 24 hours. Following 4 washes with 0.05% Tween/PBS, 50 μl of human collagen type I antibody (1:1000) (Biodesiga, Kennebunk, Me.) was applied for 90 minutes. The plate was washed again and biotin-labeled goat anti-rabbit IgG (1:1000, Sigma) was applied for 1 hour. The wells were washed 4 more times and incubated with streptavidin […] (SAAP) at a 1:2500 concentration. P-nitrophenyl phosphate (pNPP, Sigma) was used for color development according to the manufacturer's directions. The plate was read in a Titertek Mulitskan plate reader at 405 nm.
as §5

[2] = patients treated for IC; Sand et al. 1997; cited from earlier work

| Molecule | Decrease in DHT [1] | Prostate specific antigen [1] | Prostate volume reductions [1] | Cell number (human prostate cells; 24 hours following treatment with PPS (10 or 100 μg/ml), 20% FBS) | Cell death, as assessed by trypan blue staining (human prostate cells; PPS 10 or 100 μg/ml) | Decrease in cell number (human prostate cells; day 4 of treatment with 100 μg/ml PPS) | MMP-2 levels, PPS-treated cells vs control cells (MMP-2) | MMP-9 increase as compared to control cells (MMP-9) | TIMP-1 levels increase as compared to control cells (TIMP-1) | TIMP-2 expression in the medium (TIMP-2) | Type IV collagen level (type IV collagen; cell layer) | Type IV collagen level (type IV collagen; medium) | Type I collagen level relative to untreated control (type I collagen; cell layer) | Type I collagen level relative to untreated control (type I collagen; medium) | Serious adverse effects (mainly gastrointestinal or alopecia) [2] |
| --- | --- | --- | --- | --- | --- | --- | --- | --- | --- | --- | --- | --- | --- | --- | --- |
| CC(C)(C)NC(=O)[C@H]1CC[C@H]2[C@@H]3CC[C@H]4NC(=O)C=C[C@]4(C)[C@H]3CC[C@]12C [finasteride] | 72% | reduction | 30% |  |  |  |  |  |  |  |  |  |  |  |  |
| pentosan polysulfate [PPS] |  |  |  | decreased | not associated with cell death | 3 fold | no significant differences | 235.7+/−50.31% of untreated control c | 203.5+/−50.31% of untreated control c | expressed at high levels | 52.99%+/−7.556 % of controls | 43.03%+/−4.029 % of controls | 66.91%+/−25.42 % of controls | 29.97%+/−3.692 % of controls | 3.2 % of chronic users |
